{"source": "paper PMC7044277", "about": "(Nature Communications, 2020)", "format_in_all_cases": "cell-based", "key": {"320 non-olfactory GPCRs [1]": {"biological_target": "T1, 320 non-olfactory GPCRs (Homo sapiens, UniProt P25929)", "T1 construct": "expressed in transfected cells; host or cells: HTLA cells", "T1 sequence (P25929 whole entry)": "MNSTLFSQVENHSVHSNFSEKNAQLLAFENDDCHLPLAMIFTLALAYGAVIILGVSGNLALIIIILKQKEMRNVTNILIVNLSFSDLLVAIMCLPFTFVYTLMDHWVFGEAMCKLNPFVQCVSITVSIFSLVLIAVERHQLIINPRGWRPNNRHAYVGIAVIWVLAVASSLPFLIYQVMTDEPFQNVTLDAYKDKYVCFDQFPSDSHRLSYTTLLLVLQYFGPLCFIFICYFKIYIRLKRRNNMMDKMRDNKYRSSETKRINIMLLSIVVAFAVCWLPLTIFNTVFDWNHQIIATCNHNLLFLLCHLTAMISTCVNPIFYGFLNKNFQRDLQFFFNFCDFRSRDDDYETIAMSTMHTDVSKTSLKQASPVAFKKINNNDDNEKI", "settings": "receptor NPY1R; replicate values, Fig_4g"}, "320 non-olfactory GPCRs [2]": {"biological_target": "320 non-olfactory GPCRs (Homo sapiens, UniProt P41145)", "sequence (P41145 whole entry)": "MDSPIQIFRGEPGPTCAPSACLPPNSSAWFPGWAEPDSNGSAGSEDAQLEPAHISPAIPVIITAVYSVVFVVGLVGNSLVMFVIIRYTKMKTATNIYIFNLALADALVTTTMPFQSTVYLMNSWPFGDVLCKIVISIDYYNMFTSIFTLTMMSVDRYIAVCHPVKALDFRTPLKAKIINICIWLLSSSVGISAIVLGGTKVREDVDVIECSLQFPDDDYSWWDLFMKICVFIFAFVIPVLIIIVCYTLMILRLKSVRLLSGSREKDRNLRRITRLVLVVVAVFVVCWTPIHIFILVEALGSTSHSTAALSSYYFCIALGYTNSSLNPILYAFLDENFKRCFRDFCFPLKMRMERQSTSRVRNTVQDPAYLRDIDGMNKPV", "settings": "receptor OPRK1; replicate values, Fig_4g"}, "320 non-olfactory GPCRs [3]": {"biological_target": "T2, 320 non-olfactory GPCRs (Homo sapiens, UniProt P13945)", "T2 construct": "expressed in transfected cells; host or cells: HTLA cells", "T2 sequence (P13945 whole entry)": "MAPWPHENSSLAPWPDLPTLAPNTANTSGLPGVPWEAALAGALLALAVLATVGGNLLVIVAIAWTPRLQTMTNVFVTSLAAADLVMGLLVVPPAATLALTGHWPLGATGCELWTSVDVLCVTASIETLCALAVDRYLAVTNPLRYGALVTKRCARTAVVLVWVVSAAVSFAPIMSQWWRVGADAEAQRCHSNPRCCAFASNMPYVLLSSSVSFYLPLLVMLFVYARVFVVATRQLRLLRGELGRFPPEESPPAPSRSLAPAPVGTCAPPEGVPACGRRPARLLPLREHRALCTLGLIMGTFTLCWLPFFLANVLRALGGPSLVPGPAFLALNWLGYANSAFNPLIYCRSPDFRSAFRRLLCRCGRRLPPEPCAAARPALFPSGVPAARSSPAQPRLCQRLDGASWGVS"}, "320 non-olfactory GPCRs [4]": {"biological_target": "320 non-olfactory GPCRs (Homo sapiens, UniProt P30989)", "sequence (P30989 whole entry)": "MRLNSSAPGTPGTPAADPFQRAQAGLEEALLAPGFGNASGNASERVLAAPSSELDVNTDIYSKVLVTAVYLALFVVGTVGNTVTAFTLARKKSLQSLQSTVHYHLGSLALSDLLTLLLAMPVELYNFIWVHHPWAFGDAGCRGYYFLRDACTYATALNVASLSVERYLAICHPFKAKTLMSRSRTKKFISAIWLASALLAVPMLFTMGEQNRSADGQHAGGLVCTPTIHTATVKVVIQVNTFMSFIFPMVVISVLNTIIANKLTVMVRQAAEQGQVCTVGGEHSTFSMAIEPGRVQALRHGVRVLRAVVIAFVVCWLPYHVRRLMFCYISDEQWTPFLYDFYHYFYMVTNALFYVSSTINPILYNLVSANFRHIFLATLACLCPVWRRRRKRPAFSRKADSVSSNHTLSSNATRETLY", "settings": "receptor NTSR1; replicate values, Fig_4g"}}, "note": "“And” between values parts separate entries of the source, which are not always exact repeats. Equal entries are not always repeated."}
{"compound": "CCOc1cccc2cc(C(C)NCC3(O)CCCCC3)oc12", "note": "(stereo not shown) [O4LE6];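 as to Fold of Basal: compound tested at 1 µM final concentration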;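 as to GPCRome agonism screen response: fold over basal response of each receptor without drug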", "values": [{"measurement": "GPCRome agonism screen response", "setting": "320 non-olfactory GPCRs [1]", "value": "0.9657 and 1.278 and 0.9923 and 0.817"}, {"measurement": "GPCRome agonism screen response", "setting": "320 non-olfactory GPCRs [2]", "value": "0.2798 and 2.137 and 1.223 and 1.286"}, {"measurement": "Fold of Basal", "setting": "320 non-olfactory GPCRs [3]", "value": "1.471 and 1.539 and 1.208 and 0.8362"}, {"measurement": "GPCRome agonism screen response", "setting": "320 non-olfactory GPCRs [4]", "value": "0.7939 and 0.7425 and 1.49 and 2.039"}]}
